Results: the supplement of paper PMC12420376

Columns and labels:
KURAMOCHI = assay: drug sensitivity score (DSS2) on cancer cell count; higher = more sensitive; extreme values may be limits of the assay; details: 72 h
Outline: (§1)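 Screen quality was checked by Z', and a drug sensitivity score was derived in Breeze from logistic fits of the cancer cell counts. These counts were obtained by imaging at 10× (4 fields) after fixing and immunostaining for CK8/18 with Hoechst. Before that, ovarian cancer cells, alone or in 1:1 direct co-culture with lung or skin fibroblasts, had been treated for 72 h on 384-well plates acoustically pre-spotted with 528 approved and investigational compounds at 5 concentrations.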

OVCAR8 = assay: as above; details: 72 h
Outline: as §1

[1] = co-cultured fibroblast: BJHTERT
[2] = co-cultured fibroblast: none (monoculture)

SMILES	drug sensitivity score (KURAMOCHI; [1]) [DSS]	drug sensitivity score (KURAMOCHI; co-cultured fibroblast: WI38) [DSS]	drug sensitivity score (KURAMOCHI; [2]) [DSS]	drug sensitivity score (OVCAR8; [1]) [DSS]	drug sensitivity score (OVCAR8; co-cultured fibroblast: WI38) [DSS]	drug sensitivity score (OVCAR8; [2]) [DSS]
CN(C)C/C=C/C(=O)Nc1cc2c(Nc3ccc(F)c(Cl)c3)ncnc2cc1O[C@H]1CCOC1 [Afatinib]	5.3	5	3.1	3.1	0	2.4
Cn1ncc(Cl)c1-c1cc(C(=O)N[C@H](CN)Cc2cccc(F)c2)sc1Cl [Afuresertib]	1.1	0	0	0.3	0	0
COc1cccc2c1C(=O)c1c(O)c3c(c(O)c1C2=O)C[C@@](O)(/C(CO)=N/NC(=O)CCCCCN1C(=O)C=CC1=O)C[C@@H]3O[C@H]1C[C@H](N)[C@H](O)[C@H](C)O1 [Aldoxorubicin]	13.3	13.8	19.1	12.9	11.7	13.1
CCc1cc2c(cc1N1CCC(N3CCOCC3)CC1)C(C)(C)c1[nH]c3cc(C#N)ccc3c1C2=O [Alectinib]	0	0	0	0	0	0
Oc1ncnc2[nH]ncc12 [Allopurinol]	0	0	0	0	0	0
Cc1nc(NC(=O)N2CCC[C@H]2C(N)=O)sc1-c1ccnc(C(C)(C)C(F)(F)F)c1 [Alpelisib]	0	0	0	0	0	0.4
CN1CC[C@H](c2c(O)cc(O)c3c(=O)cc(-c4ccccc4Cl)oc23)[C@H](O)C1 [Alvocidib]	19.3	20.2	20.9	20.8	21.6	21
CCN(CC)CCNC(=O)c1c(C)[nH]c(/C=C2\C(=O)Nc3ccc(-c4csc(-c5ccccc5)n4)cc32)c1C [Amcasertib]	8.1	3.9	6.7	3.3	3.1	0
CCC1(c2ccc(N)cc2)CCC(=O)NC1=O (stereo unspecified) [Aminoglutethimide]	5.8	0	0	0	0.4	0
COc1cc(NS(C)(=O)=O)ccc1Nc1c2ccccc2nc2ccccc12 [Amsacrine]	14.4	18.8	21.8	20.1	19.2	23.8
S=C(NCc1ccc2c(c1)OCO2)N1CCN(c2ncnc3c2oc2ccccc23)CC1 [Amuvatinib]	2.5	0.5	0	8.6	0	2.2
O=C1CN2Cc3c(ccc(Cl)c3Cl)N=C2N1 [Anagrelide]	0	0	0	0	11.9	0
CC(C)(C#N)c1cc(Cn2cncn2)cc(C(C)(C)C#N)c1 [Anastrozole]	0	0	0	0	0	0
CNC(=O)c1ccc(N2C(=S)N(c3cnc(C#N)c(C(F)(F)F)c3)C(=O)C23CCC3)cc1F [Apalutamide]	0	0	0	0	0	0
N#CC1(c2ccc(NC(=O)c3cccnc3NCc3ccncc3)cc2)CCCC1 [Apatinib]	0	0	0	0	4.9	2.2
O=C(Nc1ccc(OC(F)(F)Cl)cc1)c1cnc(N2CC[C@@H](O)C2)c(-c2cc[nH]n2)c1 [Asciminib]	0	0	0	0	10.5	0
CC(C)c1c(C(=O)Nc2ccccc2)c(-c2ccccc2)c(-c2ccc(F)cc2)n1CC[C@@H](O)C[C@@H](O)CC(=O)O [Atorvastatin]	3.1	2.1	1.9	4	11.7	6
CC(=O)OC[C@H]1O[C@@H]([S-])[C@H](OC(C)=O)[C@@H](OC(C)=O)[C@@H]1OC(C)=O.CCP(CC)CC.[Au+] [Auranofin]	9.3	7	8.1	12.1	8.8	7.3
CNC(=O)c1ccccc1Sc1ccc2c(/C=C/c3ccccn3)n[nH]c2c1 [Axitinib]	8.7	8.4	7	7.4	5.6	6.7
Nc1ncn([C@@H]2O[C@H](CO)[C@@H](O)[C@H]2O)c(=O)n1 [Azacitidine]	2.8	2.6	9.3	3.9	1.5	8.9
Cc1cc(-c2nc(-c3ccc(OC(F)(F)F)cc3)no2)nn1Cc1ccnc(N2CCN(C3CC3)CC2)c1 [BAY 87-2243]	7.6	0	4.3	31.1	0	4.8
O=C1CCc2c(Oc3ccc4c(c3)[C@@H]3[C@H](O4)[C@H]3c3nc4cc(C(F)(F)F)ccc4[nH]3)ccnc2N1 [BGB-283]	6.9	5.3	4.7	3.7	13.4	5.2
CC[C@@H]1C(=O)N(C)c2cnc(Nc3ccc(C(=O)NC4CCN(C)CC4)cc3OC)nc2N1C1CCCC1 [BI 2536]	21.7	25.7	21.1	29.5	25.6	29.1
COc1c(C)cnc(Cn2cnc3c(Cl)nc(N)nc32)c1C [BIIB021]	13.6	21.1	15.6	21.5	21.8	24
CC1(C)C(C(=O)Nc2ccc(S(=O)(=O)c3ccc(NC(=O)C4C(C)(C)C4(C)C)cc3)cc2)C1(C)C [BRD7116]	0.5	1.9	0	0	0	0
O=C(Nc1cccc(Nc2ncc(Br)c(NCCc3cnc[nH]3)n2)c1)N1CCCC1 [BX-912]	10.4	9.6	8.7	9.1	7.8	7.3

SMILES	drug sensitivity score (KURAMOCHI; [1]) [DSS]	drug sensitivity score (KURAMOCHI; co-cultured fibroblast: WI38) [DSS]	drug sensitivity score (KURAMOCHI; [2]) [DSS]	drug sensitivity score (OVCAR8; [1]) [DSS]	drug sensitivity score (OVCAR8; co-cultured fibroblast: WI38) [DSS]	drug sensitivity score (OVCAR8; [2]) [DSS]
Cc1ccc(NC(=O)c2ccc(CN3CC[C@H](N(C)C)C3)c(C(F)(F)F)c2)cc1Nc1nccc(-c2cncnc2)n1 [Bafetinib]	0.1	0	0	0	0	0
CCS(=O)(=O)N1CC(CC#N)(n2cc(-c3ncnc4[nH]ccc34)cn2)C1 [Baricitinib]	0	0	0	0	1.1	0
O=C(/C=C/c1cccc(S(=O)(=O)Nc2ccccc2)c1)NO [Belinostat]	15.1	18.6	27.5	17.7	18.2	22.5
N#CC(c1ccnc(OCc2ccc(CN3CCOCC3)cc2)n1)c1nc2ccccc2s1 (stereo unspecified) [Bentamapimod]	2.5	2.3	0.2	0	0	1.4
C=C(c1ccc(C(=O)O)cc1)c1cc2c(cc1C)C(C)(C)CCC2(C)C [Bexarotene]	0.4	0	15.5	0	0	0
CC(O)(CS(=O)(=O)c1ccc(F)cc1)C(=O)Nc1ccc(C#N)c(C(F)(F)F)c1 (stereo unspecified) [Bicalutamide]	0	0	0	0.1	0	0
CCNC(=O)CCC/C=C\C[C@@H]1[C@@H](/C=C/[C@@H](O)CCc2ccccc2)[C@H](O)C[C@@H]1O [Bimatoprost]	0	0	0	0	0	0
Cn1cnc2c(F)c(Nc3ccc(Br)cc3F)c(C(=O)NOCCO)cc21 [Binimetinib]	2.2	0	0	2.4	0	4
Cc1sc2c(c1C)C(c1ccc(Cl)cc1)=N[C@@H](CC(=O)Nc1ccc(O)cc1)c1nnc(C)n1-2 [Birabresib]	10.7	13	8.2	19.5	8.7	15.6
CC[C@H](NC(=O)[C@H](C)NC)C(=O)N1C[C@@H](O)C[C@H]1Cc1c(-c2[nH]c3cc(F)ccc3c2C[C@@H]2C[C@H](O)CN2C(=O)[C@H](CC)NC(=O)[C@H](C)NC)[nH]c2cc(F)ccc12 [Birinapant]	3.3	0	3.7	15.9	12.9	5.4
Cc1c(N)nc([C@H](CC(N)=O)NC[C@H](N)C(N)=O)nc1C(=O)N[C@H](C(=O)N[C@H](C)[C@@H](O)[C@H](C)C(=O)N[C@H](C(=O)NCCc1nc(-c2nc(C(=O)NCCC[S+](C)C)cs2)cs1)[C@@H](C)O)[C@@H](OC1OC(CO)C(O)C(O)C1OC1OC(CO)C(O)C(OC(N)=O)C1O)c1cnc[nH]1 (stereo partly specified) [Bleomycin]	13.5	15.4	18.8	12.1	11.5	14.5
CC(C)C[C@H](NC(=O)[C@H](Cc1ccccc1)NC(=O)c1cnccn1)B(O)O [Bortezomib]	11.5	25.6	15.7	17.3	27.3	26
COc1cc(Nc2c(C#N)cnc3cc(OCCCN4CCN(C)CC4)c(OC)cc23)c(Cl)cc1Cl [Bosutinib]	12.9	11	12.6	8.6	9.1	8.9
COc1cc(N2CCC(N3CCN(C)CC3)CC2)ccc1Nc1ncc(Cl)c(Nc2ccccc2P(C)(C)=O)n1 [Brigatinib]	0.1	0	0	4.3	7.9	2.2
Cc1cc2c(F)c(Oc3ncnn4cc(OC[C@@H](C)O)c(C)c34)ccc2[nH]1 [Brivanib]	0	0	0	0	0	0
CCC/C=C/C=C/C(=O)O[C@H]1/C(=C/C(=O)OC)C[C@H]2C[C@H]([C@@H](C)O)OC(=O)C[C@H](O)C[C@@H]3C[C@H](OC(C)=O)C(C)(C)[C@](O)(C[C@@H]4C/C(=C/C(=O)OC)C[C@H](/C=C/C(C)(C)[C@]1(O)O2)O4)O3 [Bryostatin 1]	0	0	6.4	2.9	0	0
Nc1cc(C(F)(F)F)c(-c2cc(N3CCOCC3)nc(N3CCOCC3)n2)cn1 [Buparlisib]	9.1	8	7.9	6.9	3.4	9.3
Cc1nc2cccc(N)c2c(=O)n1C1CCC(=O)NC1=O (stereo unspecified) [CC122]	0	0	0	0	0	0
CCN1C(=O)CNc2ncc(-c3ccc(-c4nc[nH]n4)nc3C)nc21 [CC-115]	6.9	5.7	15.1	20.1	4.8	8.7
CO[C@H]1CC[C@H](N2C(=O)CNc3ncc(-c4ccc(C(C)(C)O)nc4)nc32)CC1 [CC-223]	6.8	5.7	4.7	5	1.6	7.6
COc1cc(C)[nH]c(=O)c1CNC(=O)c1c(C)n([C@H](C)C2CCOCC2)c2ccccc12 [CPI-360]	0	5.4	0.7	0	0	0
Cc1noc2c1-c1ccccc1C(c1ccc(Cl)cc1)=N[C@H]2CC(N)=O [CPI-0610]	0	8.5	5.7	10.9	6.5	13.8
O=C(O)CCCCC(CCSCc1ccccc1)SCc1ccccc1 (stereo unspecified) [CPI-613]	0	0	0	0	1.3	0
CN(C)c1cc2c(cc1Sc1nc3c(N)nccc3n1CCNCC(C)(C)C)OCO2 [CUDC-305]	12	14.9	18.4	16.5	16.7	23.2
COc1ccc(-c2nc(N3CCOCC3)c3sc(CN(C)c4ncc(C(=O)NO)cn4)cc3n2)cn1 [CUDC-907]	34.1	28.6	29.7	43.2	41.7	30
